Legend:
Format in all cases: cell-based
[1] = test system: MCL1 gene splicing in NCIH1568 cells; assay: Quantitative RT-PCR detection of MCL1 mRNAs (splicing modulation); conditions: six-hour treatment, qRT-PCR
Description: RNA lysates were isolated from cells treated with compounds in 96 well plates and reverse transcribed using TaqMan Gene Expression Cells-to-CT Kit (Thermo Fisher Scientific) according to manufacturer's instruction. Quantitative PCR was performed using TaqMan Gene Expression Master Mix (Thermo Fisher Scientific) with MCL1 transcript probes (Integrated DNA technologies FAM-ZEN/IBFQ) duplexed with 18S rRNA VIC-PL (Thermo Fisher Scientific assay ID Hs99999901_s1) and quantified using the ΔΔCt method.

[2] = test system: MCL1 protein in NCIH1568 cells; assay: Western Blot Analysis of MCL1L, truncated MCL1 and cleaved PARP; conditions: 6 hours
Description: Cell lines were lysed in RIPA buffer (Boston BioProducts) plus protease-inhibitor cocktail (Mini-complete, EDTA-free, Roche) and phosphatase inhibitor PhosSTOP (Roche). Lysates were diluted in RIPA buffer with 4×LDS Sample Buffer (Nupage, Thermo Fisher Scientific) and 10× Reducing Reagent (Nupage, Thermo Fisher Scientific) and boiled for 5 minutes. Twenty five micrograms of protein were loaded per well in 4-12% Bis-Tris SDS Page gels (Novex, Thermo Fisher Scientific). Gels were transferred to nitrocellulose membranes using iBlot system (Thermo Fisher Scientific). Membranes were blocked in blocking buffer (1× Tris-Buffered Saline+0.1% Tween-20 (Boston Bioproducts)+5% Non-Fat Dry Milk (Bio-Rad)) for 1 hour and then cut. Each section was probed separately with antibodies to each of the following proteins in blocking buffer: MCL1 (Cell Signaling Technologies 5453) (D35A5) rabbit monoclonal diluted 1:500, BCL-xL (Cell Signaling Technologies 2764) (54H6) rabbit monoclonal diluted 1:500, Cleaved Parp (Cell Signaling Technologies 5625) (D64P10) rabbit monoclonal diluted 1:500, and GAPDH (Sigma G8795) mouse monoclonal at 100 ng/mL. Blots were incubated with primary antibodies dilutions shaking at 4° C. overnight. Western blots were then blotted either with Odyssey Licor or HRP secondary antibodies. Blots were then washed four times using wash buffer (1× Tris-Buffered Saline+0.1% Tween-20). Blots imaged using Licor were probed shaking at room temperature for 1 hour with Licor IR-labeled secondary antibodies, IRDye® 800CW Goat anti-Rabbit IgG (Odyssey 925-32211) and IRDye® 680LT Goat anti-Mouse IgG (Odyssey 925-68020) diluted 1:10,000 in blocking buffer. Blots were then washed three times with wash buffer. IR-dye detection was performed using the Licor imaging system (Odyssey) according to manufacturer's instruction. Blots imaged using HRP were probed shaking at room temperature for 1 hour with Anti-mouse IgG, HRP-linked Antibody (Cell Signaling Technologies 7076) and Anti-rabbit IgG, HRP-linked Antibody (Cell Signaling Technologies 7074) diluted 1:5000 in blocking buffer. […]

NCIH1568 cells = assay: Growth inhibition, MCL1 rescue by MCL1L cDNA overexpression; conditions: NCIH1568 (MCL1-dependent), Dox-induced MCL1L cDNA vs empty vector
Text: (§1) BCL-xL shRNA 1 ([…]) (Wei G, et al., 2012, Cancer Cell 21(4): 547-562) was cloned into Agel and EcoRl of the Tet inducible lentiviral pLKO-iKD-H1 puro vector (Wiederschain D, et al., 2009, Cell Cycle 8(3): 498-504). MCL1 shRNA 48 ([…]) (Wei G, et al., 2012, Cancer Cell 21(4): 547-56) was cloned into Agel and EcoRl of the Tet inducible lentiviral pLKO-iKD-U6 puro vector. MCL1-L pENTR-D-TOPO was Gateway cloned (LR clonase, Thermo Fisher Scientific) into pINDUCER20 (Meerbrey K L, et al., 2011, Proc Natl Acad Sci USA. 108(9):3665-3670). Lentiviruses were prepared in LentiX-293T cells. […]
(§2) For compound dose response experiments, cells were plated in 96 or 384 well plates at 1,000 cells in 50 μl per well. […] At t=0, untreated cells were lysed with CellTiter-Glo and measured on an Envision plate reader. At t=72 (72 hours after compound addition), cells treated with compound were lysed with CellTiter-Glo and analyzed on Envision. The luminescence value from each treatment sample was normalized to the average value of the respective DMSO control. […]

A549 cells = assay: Growth inhibition with or without Dox-induced knockdown of BCLxL
Text: as §1, §2

SMILES: CC[C@H](O)[C@@H](C)[C@H]1O[C@@H]1C[C@@](C)(O)/C=C/C=C(\C)[C@H]1OC(=O)C[C@H](O)CC[C@@](C)(O)[C@@H](OC(=O)N2CCN(C3CCCCCC3)CC2)/C=C/[C@@H]1C [E7107, (8E,12E,14E)-7-((4-Cycloheptylpiperazin-1-yl)carbonyl)oxy-3,6,16,21-tetrahydroxy-6,10,12,16,20-pentamethyl-18,19-epoxytricosa-8,12,14-trien-11-olide]
- MCL1L mRNA [1]: robust reduction
- MCL1S mRNA [1]: transient expression
- MCL1 pre-mRNA with intron-retention [1]: continuous induction
- cleaved PARP protein (indicator of apoptosis) [2]: induction
- full length MCL1 protein [2]: dose-dependent downregulation
- truncated short-form MCL1 protein product [2]: increased in a dose-dependent manner
- cell death with cDNA overexpression of MCL1L (NCIH1568 cells): rescued the cell death
- growth inhibition (A549 cells; A549 (MCL1-independent), without BCLxL knockdown): cytostatic inhibition
- growth inhibition (A549 cells; A549, inducible knockdown of BCLxL (Dox)): clear cell death
